Test results published in patent US20040029886A1, “Dihalopropene compounds, processes for their preparation, compositions comprising them and their use as pesticides” (priority 2001, published 2004).

Experiments:
Format in all cases: in vivo
Design in all cases: key: compounds are considered to be active when, at a concentration of 500 ppm or less, their action on the harmful organisms is 50% or more
[1] = system: L2 larvae of the sugar beet armyworm (Spodoptera exigua); test: Example I: sugar beet armyworm L2 larvae on sprayed cotton leaves; conditions: 500 ppm or less, after 4 days
Experimental: (§1) In Examples A to L below, compounds are considered to be active when, at a concentration of 500 ppm or less, their action on the harmful organisms is 50% or more.
Cotton plants were sprayed with an aqueous solution of the formulated preparation to be examined. After drying, leaves were cut off, placed into a Petri dish and populated with 5 L2 larvae of the sugar beet armyworm (Spodoptera exigua). After 4 days of storage at about 23° C., the effect of the preparation on the larvae (mortality) was determined. The following examples were active: Nos. 27, 28, 45, 59.

[2] = system: larvae of the diamondback moth (Plutella xylostella); test: Example L: diamondback moth larvae on sprayed cabbage leaf; conditions: 500 ppm or less, after 4 days
Experimental: as §1
A cabbage leaf was sprayed with an aqueous solution of the formulated preparation to be examined. After drying, the treated leaf was populated with larvae of the diamondback moth (Plutella xylostella). After 4 days of storage at about 25° C., the effect of the preparation on the larvae (mortality) was determined. The following examples were active: Nos. 27, 28, 45.

[3] = system: L1 larvae of the codling moth (Carpocapsa pomonella); test: Example J: codling moth L1 larvae on treated culture medium; conditions: 500 ppm or less, after 14 days
Experimental: as §1
Culture medium was mixed with an aqueous solution of the formulated preparation to be examined and populated with 10 L1 larvae of the codling moth (Carpocapsa pomonella). After 14 days of storage at about 23° C., the effect of the preparation on the larvae (mortality) was determined. The following examples were active: Nos. 28, 59.

[4] = system: eggs of the American tobacco budworm (Heliothis virescens); test: Example C: eggs of American tobacco budworm, Petri dish with culture medium; conditions: 500 ppm or less; eggs dipped 5 seconds, 200 μl on culture medium; after 6 days
Experimental: as §1
A Petri dish whose bottom was covered with filter paper and which contained about 5 ml of culture medium was prepared. Pieces of filter paper with about 30, one-day-old eggs of the American tobacco budworm (Heliothis virescens) were dipped for 5 seconds into an aqueous solution of the formulated preparation to be examined and subsequently placed in a Petri dish. A further 200 μl of the aqueous solution were spread over the culture medium. The Petri dish was closed and then stored at about 25° C. in a climatized chamber. After 6 days of storage, the effect of the preparation on the eggs and any larvae which may have hatched from these (mortality) was determined. The following examples were active: Nos. 6, 27, 28, 29, 31, 35, 39, 43, 45, 59, 97, 226, 227, 228, 229, 351, 356, 357, 592, 593, 595, 949, 1001, 1126, 1129, 1132.

[5] = system: L2 larvae of the Egyptian cotton leaf worm (Spodoptera littoralis); test: Example D: L2 larvae of Egyptian cotton leaf worm, Petri dish with culture medium; conditions: 500 ppm or less, after 6 days
Experimental: as §1
A Petri dish whose bottom was covered with filter paper and which contained about 5 ml of culture medium was prepared. Five L2 larvae of the Egyptian cotton leaf worm (Spodoptera littoralis) were counted into small beakers. 200 μl of an aqueous solution of the formulated preparation to be examined were pipetted into the beaker. The treated larvae were then poured into the Petri dish, and a further 200 μl of the aqueous solution were distributed over the culture medium. The Petri dish was closed and then stored at about 25° C. in a climatized chamber. After 6 days of storage, the effect of the preparation on the larvae (mortality) was determined. The following examples were active: Nos. 27, 28, 29, 39, 43, 45, 59.

CC(=NO)c1cc(OCC=C(Cl)Cl)cc(Cl)c1OCCCOc1ccc(C(F)(F)F)cn1 [compound 28]
active: effect of the preparation on the larvae (mortality) [1] | effect of the preparation on the larvae (mortality) [2] | effect of the preparation on the larvae (mortality) [3] | effect of the preparation on the eggs and any larvae hatched (mortality) [4] | effect of the preparation on the larvae (mortality) [5]
